From ChEMBL document CHEMBL2375306, “Antimicrobial peptides containing unnatural amino acid exhibit potent bactericidal activity against ESKAPE pathogens” (Bioorg Med Chem, 2013)
Converted amounts (≈) assume the structure as drawn. Square brackets hold non-standard residues; d marks the D form. Peptide text beside a SMILES is read from it. ξ: configuration not given here. Pro(3ξ,4ξ-(CH2)4) = O=C(O)[C@H]1NCC2CCCCC21; Pro(3,4-benzo) = O=C(O)[C@H]1NCc2ccccc21; Tic = O=C(O)[C@@H]1Cc2ccccc2CN1

Key:
Format in all cases: functional
[1] = system: Enterococcus faecium; test: Antibacterial activity against Enterococcus faecium MMC4 after 24 hrs by broth microdilution method; settings: MMC4, 24 h
[2] = system: Klebsiella aerogenes; test: Antibacterial activity against Enterobacter aerogenes after 24 hrs by broth microdilution method
[3] = system: Pseudomonas aeruginosa; test: Antibacterial activity against Pseudomonas aeruginosa PAO1 after 24 hrs by broth microdilution method; settings: PAO1, 24 h
[4] = system: Klebsiella pneumoniae; test: Antibacterial activity against Klebsiella pneumoniae BAMS clinical isolate 07-18 after 24 hrs by broth microdilution method; settings: BAMS clinical isolate 07-18, 24 h
[5] = system: Acinetobacter baumannii; test: Antibacterial activity against Acinetobacter baumannii WRAIR clinical isolate 13 after 24 hrs by broth microdilution method; settings: WRAIR clinical isolate 13, 24 h
[6] = system: Staphylococcus aureus; test: Antibacterial activity against methicillin-sensitive Staphylococcus aureus UAMS-1 after 24 hrs by broth microdilution method; settings: UAMS-1, 24 h

Row | MIC [1] [µg/mL] | MIC [2] [µg/mL] | MIC [3] [µg/mL] | MIC [4] [µg/mL] | MIC [5] [µg/mL] | MIC [6] [µg/mL] | SMILES | MBC [1] [µg/mL] | MBC [2] [µg/mL] | MBC [3] [µg/mL] | MBC [4] [µg/mL] | MBC [5] [µg/mL] | MBC [6] [µg/mL]
1 | 6.25 (≈ 1.82 µM) | > 100 | 50 (≈ 14.6 µM) | > 100 | 25 (≈ 7.3 µM) | 50 (≈ 14.6 µM) | CC(C)C[C@H](NC(=O)[C@@H](N)CCCCN)C(=O)N1Cc2ccccc2C[C@H]1C(=O)N1CC2CCCCC2[C@H]1C(=O)N[C@@H](CCCCN)C(=O)N1Cc2ccccc2C[C@H]1C(=O)N1CC2CCCCC2[C@H]1C(=O)NC(=O)CN[C@@H](Cc1ccccc1)C(=O)N1Cc2ccccc2C[C@H]1C(=O)N1CC2CCCCC2[C@H]1C(=O)N[C@@H](CCCCN)C(=O)N1Cc2ccccc2C[C@H]1C(=O)N1CC2CCCCC2[C@H]1C(=O)NC(=O)CN[C@@H](Cc1ccccc1)C(=O)N1Cc2ccccc2C[C@H]1C(=O)N1CC2CCCCC2[C@H]1C(=O)N[C@@H](CCCCN)C(=O)N1Cc2ccccc2C[C@H]1C(=O)N1CC2CCCCC2[C@H]1C(=O)N[C@@H](CCCCN)C(=O)N[C@@H](CCCCN)C(=O)N[C@@H](CCCCN)C(=O)N[C@@H](CCCCN)C(N)=O (stereo partly drawn) | 25 (≈ 7.3 µM) | > 100 | 50 (≈ 14.6 µM) | 100 (≈ 29.2 µM) | 100 (≈ 29.2 µM) | 50 (≈ 14.6 µM)
2 | 6.25 (≈ 1.82 µM) | 100 (≈ 29.2 µM) | 50 (≈ 14.6 µM) | 50 (≈ 14.6 µM) | 12.5 (≈ 3.65 µM) | 25 (≈ 7.3 µM) | CC(C)C[C@H](NC(=O)[C@@H](N)CCCCN)C(=O)N1Cc2ccccc2C[C@H]1C(=O)N1CC2CCCCC2[C@H]1C(=O)N[C@@H](CCCCN)C(=O)N1Cc2ccccc2C[C@H]1C(=O)N1CC2CCCCC2[C@H]1C(=O)NC(=O)[C@H](Cc1ccccc1)NCC(=O)N1Cc2ccccc2C[C@H]1C(=O)N1CC2CCCCC2[C@H]1C(=O)N[C@@H](CCCCN)C(=O)N1Cc2ccccc2C[C@H]1C(=O)N1CC2CCCCC2[C@H]1C(=O)NC(=O)[C@H](Cc1ccccc1)NCC(=O)N1Cc2ccccc2C[C@H]1C(=O)N1CC2CCCCC2[C@H]1C(=O)N[C@@H](CCCCN)C(=O)N1Cc2ccccc2C[C@H]1C(=O)N1CC2CCCCC2[C@H]1C(=O)N[C@@H](CCCCN)C(=O)N[C@@H](CCCCN)C(=O)N[C@@H](CCCCN)C(=O)N[C@@H](CCCCN)C(N)=O (stereo partly drawn) | 25 (≈ 7.3 µM) | 100 (≈ 29.2 µM) | 50 (≈ 14.6 µM) | 100 (≈ 29.2 µM) | 50 (≈ 14.6 µM) | 25 (≈ 7.3 µM)
3 | 12.5 (≈ 4.68 µM) | 100 (≈ 37.4 µM) | 50 (≈ 18.7 µM) | 50 (≈ 18.7 µM) | 12.5 (≈ 4.68 µM) | 100 (≈ 37.4 µM) | CC(=O)NCC(=O)N[C@@H](CC(=O)O)C(=O)N[C@@H](Cc1ccccc1)C(=O)N1Cc2ccccc2C[C@H]1C(=O)N1CC2CCCCC2[C@H]1C(=O)NCC(=O)N[C@@H](CCCCN)C(=O)N1Cc2ccccc2C[C@H]1C(=O)N1CC2CCCCC2[C@H]1C(=O)NCC(=O)N[C@@H](CC(=O)O)C(=O)N[C@@H](Cc1ccccc1)C(=O)N1Cc2ccccc2C[C@H]1C(=O)N1CC2CCCCC2[C@H]1C(=O)NCC(=O)N[C@@H](CCCCN)C(=O)N1Cc2ccccc2C[C@H]1C(=O)N[C@@H](CCCCN)C(=O)N[C@@H](CCCCN)C(=O)N[C@@H](CCCCN)C(=O)N[C@@H](CCCCN)C(N)=O (stereo partly drawn) (Ac-GDF[Tic][Pro(3ξ,4ξ-(CH2)4)]GK[Tic][Pro(3ξ,4ξ-(CH2)4)]GDF[Tic][Pro(3ξ,4ξ-(CH2)4)]GK[Tic]KKKK-NH2) | 50 (≈ 18.7 µM) | 100 (≈ 37.4 µM) | 50 (≈ 18.7 µM) | 100 (≈ 37.4 µM) | 12.5 (≈ 4.68 µM) | 100 (≈ 37.4 µM)
4 | 12.5 (≈ 5.21 µM) | > 100 | > 100 | > 100 | 12.5 (≈ 5.21 µM) | > 100 | CC(=O)NCC(=O)N[C@@H](Cc1ccccc1)C(=O)N1Cc2ccccc2[C@H]1C(=O)N1CC2CCCCC2[C@H]1C(=O)NCC(=O)N[C@@H](CCCCN)C(=O)N1Cc2ccccc2[C@H]1C(=O)N1CC2CCCCC2[C@H]1C(=O)NCC(=O)N[C@@H](Cc1ccccc1)C(=O)N1Cc2ccccc2[C@H]1C(=O)N1CC2CCCCC2[C@H]1C(=O)NCC(=O)N[C@@H](CCCCN)C(=O)N1Cc2ccccc2C[C@H]1C(=O)N[C@@H](CCCCN)C(=O)N[C@@H](CCCCN)C(=O)N[C@@H](CCCCN)C(=O)N[C@@H](CCCCN)C(N)=O (stereo partly drawn) (Ac-GF[Pro(3,4-benzo)][Pro(3ξ,4ξ-(CH2)4)]GK[Pro(3,4-benzo)][Pro(3ξ,4ξ-(CH2)4)]GF[Pro(3,4-benzo)][Pro(3ξ,4ξ-(CH2)4)]GK[Tic]KKKK-NH2) | 100 (≈ 41.7 µM) | > 100 | > 100 | > 100 | 12.5 (≈ 5.21 µM) | > 100
